Target: T1, SIRT1 (Homo sapiens, UniProt Q96EB6)
T1 sequence (Q96EB6 1-747): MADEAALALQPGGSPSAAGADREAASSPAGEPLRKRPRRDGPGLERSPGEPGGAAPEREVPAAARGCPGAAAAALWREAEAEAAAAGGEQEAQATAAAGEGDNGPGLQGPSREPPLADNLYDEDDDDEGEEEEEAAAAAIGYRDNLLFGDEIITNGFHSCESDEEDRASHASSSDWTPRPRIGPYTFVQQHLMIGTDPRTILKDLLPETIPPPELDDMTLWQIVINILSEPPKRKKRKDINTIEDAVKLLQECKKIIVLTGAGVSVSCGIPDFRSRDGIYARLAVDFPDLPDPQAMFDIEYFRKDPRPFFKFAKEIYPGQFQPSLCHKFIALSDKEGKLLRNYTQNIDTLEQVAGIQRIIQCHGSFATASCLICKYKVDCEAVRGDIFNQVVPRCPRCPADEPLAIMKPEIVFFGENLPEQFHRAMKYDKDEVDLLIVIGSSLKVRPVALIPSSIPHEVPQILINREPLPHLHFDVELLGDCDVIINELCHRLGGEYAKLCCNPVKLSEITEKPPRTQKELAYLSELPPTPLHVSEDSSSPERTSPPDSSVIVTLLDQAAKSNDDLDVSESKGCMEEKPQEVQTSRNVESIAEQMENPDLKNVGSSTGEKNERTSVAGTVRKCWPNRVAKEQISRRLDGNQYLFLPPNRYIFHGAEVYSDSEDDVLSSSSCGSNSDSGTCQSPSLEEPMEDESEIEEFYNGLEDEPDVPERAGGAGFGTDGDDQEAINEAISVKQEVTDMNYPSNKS
Test: mass spectrometry based SIRT1 deacetylation assay (activation)
Format: biochemical
Conditions: 0.5 μM peptide substrate, 120 μM βNAD+, 10 nM SIRT1, 25 min at 25° C.; for EC1.5 (concentration of test compound that results in 150% activation of SIRT1): NA = not active in the assay; for Emax: read-out: % FOLD ACT. (percent maximum fold activation of SIRT1)
Source text: A mass spectrometry based assay was used to identify modulators of SIRT1 activity. The mass spectrometry based assay utilizes a peptide having 20 amino acid residues as follows: Ac-EE-K(biotin)-GQSTSSHSK(Ac)NleSTEG-K(5TMR)-EE-NH2 (SEQ ID NO: 1) wherein K(Ac) is an acetylated lysine residue and Nle is a norleucine. The peptide is labeled with the fluorophore 5TMR (excitation 540 nm/emission 580 nm) at the C-terminus. The sequence of the peptide substrate is based on p53 with several modifications. In addition, the methionine residue naturally present in the sequence was replaced with the norleucine because the methionine may be susceptible to oxidation during synthesis and purification.
Test compounds may be added to the reaction as described above. […] After the 25 minute incubation with SIRT1, 10 μL of 10% formic acid is added to stop the reaction. Reactions are sealed and frozen for later mass spec analysis. Determination of the mass of the substrate peptide allows for precise determination of the degree of acetylation (i.e. starting material) as compared to deacetylated peptide (product).
A control for inhibition of sirtuin activity is conducted by adding 1 μL of 500 mM nicotinamide as a negative control at the start of the reaction (e.g., permits determination of maximum sirtuin inhibition). A control for activation of sirtuin activity is conducted using 10 nM of sirtuin protein, with 1 μL of DMSO in place of compound, to determine the amount of deacetylation of the substrate at a given timepoint within the linear range of the assay. This timepoint is the same as that used for test compounds and, within the linear range, the endpoint represents a change in velocity.
For the above assay, SIRT1 protein was expressed and purified as follows. […] The protein was expressed by induction with 1 mM IPTG as an N-terminal His-tag fusion protein at 18° C. overnight and harvested at 30,000×g. Cells were lysed with lysozyme in lysis buffer (50 mM Tris-HCl, 2 mM Tris[2-carboxyethyl]phosphine (TCEP), 10 μM ZnCl2, 200 mM NaCl) and further treated with sonication for 10 min for complete lysis. The protein was purified over a Ni-NTA column (Amersham) and fractions containing pure protein were pooled, concentrated and run over a sizing column (Sephadex S200 26/60 global). The peak containing soluble protein was collected and run on an Ion-exchange column (MonoQ). Gradient elution (200 mM-500 mM NaCl) yielded pure protein. This protein was concentrated and dialyzed against dialysis buffer (20 mM Tris-HCl, 2 mM TCEP) overnight. The protein was aliquoted and frozen at −80° C. until further use.
Sirtuin modulating compounds that activated SIRT1 were identified using the assay described above and are shown below in Table 3. The EC1.5 values represent the concentration of test compounds that result in 150% activation of SIRT1. NT means that the compound was not tested using the indicated assay. NA means that the compound was not active in the indicated assay.

Row | EC1.5 (concentration of test compound that results in 150% activation of SIRT1) [NM] | Emax [%] | SMILES
1 | 233 | 241 | O=C(Nc1ccccc1-c1nc2cc(CN3CCOCC3)cnc2s1)c1cccc(-c2ccccc2)c1 [Compound 1]
2 | – | 132 | O=C(Nc1ccccc1-c1nc2cc(CN3CCOCC3)cnc2s1)c1cc(-c2ccccc2)no1 [Compound 2]
3 | 1620 | 246 | O=C(Nc1ccccc1-c1nc2cc(CN3CCOCC3)cnc2s1)c1cc(-c2ccccc2)n[nH]1 [Compound 3]
4 | 504 | 321 | O=C(Nc1ccccc1-c1nc2cc(CN3CCOCC3)cnc2s1)c1cccc(-c2ccccn2)c1 [Compound 4]
5 | 665 | 281 | O=C(Nc1ccccc1-c1nc2cc(CN3CCOCC3)cnc2s1)c1cccc(-c2cccnc2)c1 [Compound 5]
6 | 746 | 274 | O=C(Nc1ccccc1-c1nc2cc(CN3CCOCC3)cnc2s1)c1cccc(-c2ccncc2)c1 [Compound 6]
7 | 340 | 471 | O=C(Nc1ccccc1-c1nc2cc(CN3CCNCC3)cnc2s1)c1cccc(-c2ccccn2)c1 [Compound 8]
8 | 416 | 392 | O=C(Nc1ccccc1-c1nc2cc(CN3CCNCC3)cnc2s1)c1cccc(-c2cccnc2)c1 [Compound 9]
9 | 492 | 316 | O=C(Nc1ccccc1-c1nc2cc(CN3CCNCC3)cnc2s1)c1cccc(-c2ccncc2)c1 [Compound 10]
10 | 78 | 578 | NC1CCN(Cc2cnc3sc(-c4ccccc4NC(=O)c4cccc(-c5ccccc5)c4)nc3c2)CC1 [Compound 11]
11 | 249 | 550 | NC1CCN(Cc2cnc3sc(-c4ccccc4NC(=O)c4cccc(-c5ccncc5)c4)nc3c2)CC1 [Compound 12]
12 | 584 | 252 | O=C(Nc1ccccc1-c1nc2cc(CN3CCCC3)cnc2s1)c1cccc(-c2ccccc2)c1 [Compound 13]
13 | 937 | 381 | CC(C)NCc1cnc2sc(-c3ccccc3NC(=O)c3cccc(-c4ccccn4)c3)nc2c1 [Compound 14]
14 | 627 | 531 | C[C@@H]1CN(Cc2cnc3sc(-c4ccccc4NC(=O)c4cccc(-c5ccccn5)c4)nc3c2)C[C@H](C)N1 [Compound 15]
15 | 674 | 405 | C[C@@H]1CN(Cc2cnc3sc(-c4ccccc4NC(=O)c4cccc(-c5cccnc5)c4)nc3c2)C[C@H](C)N1 [Compound 16]
16 | 683 | 360 | C[C@@H]1CN(Cc2cnc3sc(-c4ccccc4NC(=O)c4cccc(-c5ccncc5)c4)nc3c2)C[C@H](C)N1 [Compound 17]
17 | 620 | 457 | NC1CCN(Cc2cnc3sc(-c4ccccc4NC(=O)c4cccc(-c5cccnc5)c4)nc3c2)CC1 [Compound 18]
18 | 722 | 198 | CC(C)NCc1cnc2sc(-c3ccccc3NC(=O)c3cccc(-c4ccccc4)c3)nc2c1 [Compound 19]

Row | EC1.5 (concentration of test compound that results in 150% activation of SIRT1) [NM] | Emax [%] | SMILES
19 | 687 | 224 | O=C(Nc1ccccc1-c1nc2cc(CN3CCCC3)cnc2s1)c1cccc(-c2ccccn2)c1 [Compound 20]
20 | 162 | 906 | NC1CCN(Cc2cnc3sc(-c4ccccc4NC(=O)c4cccc(-c5ccccn5)c4)nc3c2)CC1 [Compound 21]
21 | 2620 | 417 | CC(C)NCc1cnc2sc(-c3ccccc3NC(=O)c3cccc(-c4ccncc4)c3)nc2c1 [Compound 22]
22 | 1950 | 241 | CC(C)NCc1cnc2sc(-c3ccccc3NC(=O)c3cccc(-c4cccnc4)c3)nc2c1 [Compound 23]
23 | 94 | 299 | C[C@@H]1CN(Cc2cnc3sc(-c4ccccc4NC(=O)c4cccc(-c5ccccc5)c4)nc3c2)C[C@H](C)N1 [Compound 24]
24 | 469 | 203 | O=C(Nc1ccccc1-c1nc2cc(CN3CC[C@@H](F)C3)cnc2s1)c1cccc(-c2ccccc2)c1 [Compound 25]
25 | 455 | 192 | O=C(Nc1ccccc1-c1nc2cc(CN3CC[C@@H](F)C3)cnc2s1)c1cccc(-c2ccccn2)c1 [Compound 26]
26 | 913 | 185 | O=C(Nc1ccccc1-c1nc2cc(CN3CC[C@@H](F)C3)cnc2s1)c1cccc(-c2cccnc2)c1 [Compound 27]
27 | 3590 | 162 | CC(C)NCc1cnc2sc(-c3ccccc3NC(=O)c3cncc(-c4ccccc4)c3)nc2c1 [Compound 28]
28 | 462 | 378 | O=C(Nc1ccccc1-c1nc2cc(CN3C[C@@H]4C[C@H]3CN4)cnc2s1)c1cccc(-c2cccnc2)c1 [Compound 29]
29 | 986 | 142 | O=C(Nc1ccccc1-c1nc2cc(CN3CC[C@@H](F)C3)cnc2s1)c1cccc(-c2ccc[n+]([O-])c2)c1 [Compound 30]
30 | 1000 | 168 | O=C(Nc1ccccc1-c1nc2cc(CN3CC[C@@H](F)C3)cnc2s1)c1cccc(-c2ncccn2)c1 [Compound 31]
31 | 815 | 162 | Cc1nc(-c2cccc(C(=O)Nc3ccccc3-c3nc4cc(CN5CC[C@@H](F)C5)cnc4s3)c2)cs1 [Compound 32]
32 | 91 | 533 | COCCN1CCN(Cc2cnc3sc(-c4ccccc4NC(=O)c4cccc(-c5ccccc5)c4)nc3c2)CC1 [Compound 33]
33 | 281 | 492 | COCCN1CCN(Cc2cnc3sc(-c4ccccc4NC(=O)c4cccc(-c5ccccn5)c4)nc3c2)CC1 [Compound 34]
34 | 554 | 234 | COCCN1CCN(Cc2cnc3sc(-c4ccccc4NC(=O)c4cncc(-c5ccccc5)c4)nc3c2)CC1 [Compound 35]
35 | 507 | 422 | O=C(Nc1ccccc1-c1nc2cc(CN[C@H]3CCNC3)cnc2s1)c1cccc(-c2ccccn2)c1 [Compound 37]
